Test results reported in paper PMC3590912 (Journal of medicinal chemistry, 2012).

Key:
[1] = Pharmacokinetics and renal accumulation in mice; conditions: intraperitoneal bolus 400 μg, for many hours
[2] = In vitro metabolic stability in hepatic microsomes with NADPH; conditions: for in vitro metabolic stability (in words): hepatic microsomes with NADPH, compared with 1
mice = experiment: Urearetic activity: urine osmolality in mice under dDAVP stimulation; format: in vivo, mouse; conditions: 400 μg intraperitoneal, dDAVP 1 h later, versus formulation alone

| Structure (SMILES) | 3k concentration in blood, kidney and urine [1] | improvement of in vitro metabolic stability compared to 1 [2] | reduction of urine osmolality (mice) | in vitro metabolic stability (in words) [2] |
| --- | --- | --- | --- | --- |
| CC(F)(F)c1ccc(S(=O)(=O)c2nnn3c2nc(NCc2cccs2)c2sccc23)cc1 [3k, [3-[4-(1,1-Difluoroethyl)benzenesulfonyl]thieno[2,3-e]-[1,2,3]triazolo[1,5-a]pyrimidin-5-yl]thiophen-2-ylmethylamine] | > 1 µM | ~ 40 fold | ~ 0.5 Osm/kg H2O |  |
| O=S(=O)(c1ccc(Br)cc1)c1nnn2c1nc(NCc1cccs1)c1sccc12 [3i, [3-(4-Bromobenzenesulfonyl)thieno[2,3-e][1,2,3]triazolo-[1,5-a]pyrimidin-5-yl]thiophen-2-ylmethylamine] |  |  |  | improved metabolic stability |
| O=S(=O)(c1ccc(OC(F)(F)F)cc1)c1nnn2c1nc(NCc1cccs1)c1sccc12 [3d, Thiophen-2-ylmethyl-[3-(4-trifluoromethoxybenzenesulfonyl)thieno[2,3-e][1,2,3]triazolo-[1,5-a]pyrimidin-5-yl]amine] |  |  |  | improved metabolic stability |
| O=S(=O)(c1ccc(C(F)(F)F)cc1)c1nnn2c1nc(NCc1cccs1)c1sccc12 [3c, Thiophen-2-ylmethyl-[3-(4-trifluoromethylbenzenesulfonyl)thieno[2,3-e][1,2,3]triazolo[1,5-a]pyrimidin-5-yl]amine] |  |  |  | improved metabolic stability |
